Patent publication US12599672B2, “KRAS proteolysis targeting chimeras” (PAQ Therapeutics Inc., priority 2023, dated 2026)

What was measured:
Assay type in all cases: cell-based
KRAS G12D = target: T1, KRAS G12D (Homo sapiens, UniProt P01116, G12D); test: KRAS G12D HiBit assay; details: AsPc-1-KRAS (G12D)-HiBit-KI cell, compound treatment for 24 hours, absolute DC50; class symbols
T1 construct: AsPc-1-KRAS (G12D)-HiBit-KI cell (Pharmaron); host or cells: AsPc-1-KRAS (G12D)-HiBit-KI cells (HiBiT knock-in at the endogenous KRAS locus)
How it was run: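 Cells were treated for 24 h with compounds in a 3-fold, 10-point dilution series from a 0.3 mM DMSO stock, then equilibrated 15 min at room temperature. KRAS G12D HiBiT levels were read by luminescence after lytic Nano-Glo HiBiT reagent with LgBiT; inhibition calculated relative to 0.1% DMSO high control.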

KRAS = target: T2, KRAS (Homo sapiens, UniProt P01116); test: KRASamp MSD assay; details: KE39 (KRAS amplified) cells, treated with test compounds for 24 hr, MSD readout of KRAS degradation
T2 construct: endogenous in cells; host or cells: KE39 (KRAS amplified) cells
How it was run: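 KRAS-amplified KE39 cells treated with compound for 24 hr, then lysed in RIPA buffer with protease/phosphatase inhibitors. KRAS protein measured by MSD sandwich immunoassay against a recombinant WT KRAS standard curve; DC50 derived from curve fitting of degradation.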

KRAS G12V = target: T3, KRAS G12V (Homo sapiens, UniProt P01116, G12V); test: KRAS G12V HiBit assay; details: SW620-KRAS (G12V)-HiBit-KI cells, compound treatment for 24 hours, class symbols
T3 construct: SW620-KRAS (G12V)-HiBit-KI cell (Pharmaron); host or cells: SW620-KRAS (G12V)-HiBit-KI cells (HiBiT knock-in at the endogenous KRAS locus)
How it was run: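 HiBiT-tagged KRAS G12V cells treated 24 h with compound in a 3-fold, 10-point series (0.3 mM DMSO stock); lytic HiBiT reagent with LgBiT added after 15 min room-temperature equilibration. Degradation calculated against 0.1% DMSO high control.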

T2 sequence (P01116 1-188 isoform P01116-2): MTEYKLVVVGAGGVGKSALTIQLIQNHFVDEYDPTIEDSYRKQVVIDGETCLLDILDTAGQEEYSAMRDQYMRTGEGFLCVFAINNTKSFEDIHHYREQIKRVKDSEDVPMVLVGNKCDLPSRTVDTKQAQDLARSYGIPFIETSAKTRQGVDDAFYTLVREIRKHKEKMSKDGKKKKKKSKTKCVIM
T1 sequence (P01116 1-188 isoform P01116-2 G12D): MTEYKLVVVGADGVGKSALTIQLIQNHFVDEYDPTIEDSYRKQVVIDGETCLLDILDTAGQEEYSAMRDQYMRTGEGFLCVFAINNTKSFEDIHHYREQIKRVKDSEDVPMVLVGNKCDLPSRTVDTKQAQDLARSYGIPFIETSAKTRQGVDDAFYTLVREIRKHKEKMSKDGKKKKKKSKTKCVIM
T3 sequence (P01116 1-188 isoform P01116-2 G12V): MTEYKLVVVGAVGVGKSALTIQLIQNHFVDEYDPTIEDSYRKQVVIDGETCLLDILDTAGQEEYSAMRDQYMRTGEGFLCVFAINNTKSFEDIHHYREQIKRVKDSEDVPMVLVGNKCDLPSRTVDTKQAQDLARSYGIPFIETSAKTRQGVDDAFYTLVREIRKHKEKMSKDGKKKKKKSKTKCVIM

| SMILES | DC50 (KRAS G12D) [µM] | DC50 (KRAS) [µM] | DC50 (KRAS G12V) [µM] |
| --- | --- | --- | --- |
| CCc1c(F)ccc2cc(O)cc(-c3ccc4c(N5CCC[C@@](C)(O)C5)nc(OC[C@@]56CCCN5[C@H](COC(=O)N5CCC(CN7CCC(c8cc9c(cc8F)n(C8CCC(=O)NC8=O)c(=O)n9C)CC7)CC5)CC6)nc4c3F)c12 (stereo partly drawn) [Compound 424, ((3S,7aS)-7a-(((7-(8-ethyl-7-fluoro-3-hydroxynaphthalen-1-yl)-8-fluoro-4-((R)-3-hydroxy-3-methylpiperidin-1-yl)quinazolin-2-yl)oxy)methyl)hexahydro-1H-pyrrolizin-3-yl)methyl 4-((4-(1-(2,6-dioxopiperidin-3-yl)-6-fluoro-3-methyl-2-oxo-2,3-dihydro-1H-benzo[d]imidazol-5-yl)piperidin-1-yl)methyl)piperidine-1-carboxylate] | < 0.1 | < 0.001 | < 0.01 |
| CCc1c(F)ccc2cc(O)cc(-c3ncc4c(N5CCC[C@@](C)(O)C5)nc(OC[C@]56CCCN5[C@@H](COC(=O)N5CCC(CN7CCC(c8cc9c(cc8F)n(C8CCC(=O)NC8=O)c(=O)n9C)CC7)CC5)CC6)nc4c3F)c12 (stereo partly drawn) [Compound 425, ((3R,7aR)-7a-(((7-(8-ethyl-7-fluoro-3-hydroxynaphthalen-1-yl)-8-fluoro-4-((R)-3-hydroxy-3-methylpiperidin-1-yl)pyrido[4,3-d]pyrimidin-2-yl)oxy)methyl)hexahydro-1H-pyrrolizin-3-yl)methyl 4-((4-(1-(2,6-dioxopiperidin-3-yl)-6-fluoro-3-methyl-2-oxo-2,3-dihydro-1H-benzo[d]imidazol-5-yl)piperidin-1-yl)methyl)piperidine-1-carboxylate] | < 0.1 | < 0.001 | < 0.01 |
| CCc1c(F)ccc2cc(O)cc(-c3ncc4c(N5CCC[C@@](C)(O)C5)nc(OC[C@@]56CCCN5[C@@H](COC(=O)N5CCC(CN7CCC(c8cc9c(cc8F)n(C8CCC(=O)NC8=O)c(=O)n9C)CC7)CC5)CC6)nc4c3F)c12 (stereo partly drawn) [Compound 426, ((3R,7aS)-7a-(((7-(8-ethyl-7-fluoro-3-hydroxynaphthalen-1-yl)-8-fluoro-4-((R)-3-hydroxy-3-methylpiperidin-1-yl)pyrido[4,3-d]pyrimidin-2-yl)oxy)methyl)hexahydro-1H-pyrrolizin-3-yl)methyl 4-((4-(1-(2,6-dioxopiperidin-3-yl)-6-fluoro-3-methyl-2-oxo-2,3-dihydro-1H-benzo[d]imidazol-5-yl)piperidin-1-yl)methyl)piperidine-1-carboxylate] | < 0.1 | < 0.001 | 0.01 to 0.1 |
| CCc1c(F)ccc2cc(O)cc(-c3ncc4c(N5CCC[C@@](C)(O)C5)nc(OC[C@@]56CCCN5[C@H](COC(=O)NC5CCN(C7CCN(c8ccc9c(c8)n(C)c(=O)n9C8CCC(=O)NC8=O)CC7)CC5)CC6)nc4c3F)c12 (stereo partly drawn) [Compound 427, ((3S,7aS)-7a-(((7-(8-ethyl-7-fluoro-3-hydroxynaphthalen-1-yl)-8-fluoro-4-((R)-3-hydroxy-3-methylpiperidin-1-yl)pyrido[4,3-d]pyrimidin-2-yl)oxy)methyl)hexahydro-1H-pyrrolizin-3-yl)methyl (1′-(1-(2,6-dioxopiperidin-3-yl)-3-methyl-2-oxo-2,3-dihydro-1H-benzo[d]imidazol-5-yl)-[1,4′-bipiperidin]-4-yl)carbamate] | < 0.1 | ≥ 0.01 | 0.01 to 0.1 |
| CCc1c(F)ccc2cc(O)cc(-c3ncc4c(N5CCC[C@@](C)(O)C5)nc(OC[C@@]56CCCN5[C@H](COC(=O)NC5CCN(CC7CCN(c8ccc9c(c8)n(C)c(=O)n9C8CCC(=O)NC8=O)CC7)CC5)CC6)nc4c3F)c12 (stereo partly drawn) [Compound 428, ((3S,7aS)-7a-(((7-(8-ethyl-7-fluoro-3-hydroxynaphthalen-1-yl)-8-fluoro-4-((R)-3-hydroxy-3-methylpiperidin-1-yl)pyrido[4,3-d]pyrimidin-2-yl)oxy)methyl)hexahydro-1H-pyrrolizin-3-yl)methyl (1-((1-(1-(2,6-dioxopiperidin-3-yl)-3-methyl-2-oxo-2,3-dihydro-1H-benzo[d]imidazol-5-yl)piperidin-4-yl)methyl)piperidin-4-yl)carbamate] | < 0.1 | 0.001 to 0.01 | 0.01 to 0.1 |
| CCc1c(F)ccc2cc(O)cc(-c3ncc4c(N5CCC[C@@](C)(O)C5)nc(OC[C@@]56CCCN5[C@H](COC(=O)N5CCC(CN7CCC(Cc8ccc9c(c8)n(C)c(=O)n9C8CCC(=O)NC8=O)CC7)CC5)CC6)nc4c3F)c12 (stereo partly drawn) [Compound 429, ((3S,7aS)-7a-(((7-(8-ethyl-7-fluoro-3-hydroxynaphthalen-1-yl)-8-fluoro-4-((R)-3-hydroxy-3-methylpiperidin-1-yl)pyrido[4,3-d]pyrimidin-2-yl)oxy)methyl)hexahydro-1H-pyrrolizin-3-yl)methyl 4-((4-((1-(2,6-dioxopiperidin-3-yl)-3-methyl-2-oxo-2,3-dihydro-1H-benzo[d]imidazol-5-yl)methyl)piperidin-1-yl)methyl)piperidine-1-carboxylate] | < 0.1 | < 0.001 | < 0.01 |
| CCc1c(F)ccc2cc(O)cc(-c3ncc4c(N5CCC[C@@](C)(O)C5)nc(OC[C@@]56CCCN5[C@H](COC(=O)N5CCC(N7CCC(Cc8ccc9c(c8)n(C)c(=O)n9C8CCC(=O)NC8=O)CC7)CC5)CC6)nc4c3F)c12 (stereo partly drawn) [Compound 430, ((3S,7aS)-7a-(((7-(8-ethyl-7-fluoro-3-hydroxynaphthalen-1-yl)-8-fluoro-4-((R)-3-hydroxy-3-methylpiperidin-1-yl)pyrido[4,3-d]pyrimidin-2-yl)oxy)methyl)hexahydro-1H-pyrrolizin-3-yl)methyl 4-((1-(2,6-dioxopiperidin-3-yl)-3-methyl-2-oxo-2,3-dihydro-1H-benzo[d]imidazol-5-yl)methyl)-[1,4′-bipiperidine]-1′-carboxylate] | < 0.1 | 0.001 to 0.01 | 0.01 to 0.1 |

Other lines, results leading:

| DC50 (KRAS G12D) [µM] | DC50 (KRAS) [µM] | DC50 (KRAS G12V) [µM] | SMILES |
| --- | --- | --- | --- |
| < 0.1 | 0.001 to 0.01 | 0.01 to 0.1 | C#Cc1c(F)ccc2cc(O)cc(-c3ncc4c(N5CCC[C@@](C)(O)C5)nc(OC[C@@]56CCCN5[C@H](COC(=O)N5CC7(CCC(N8CCC(c9ccc%10c(c9)n(C)c(=O)n%10C9CCC(=O)NC9=O)CC8)CC7)C5)CC6)nc4c3F)c12 (stereo partly drawn) [Compound 420, ((3S,7aS)-7a-(((7-(8-ethynyl-7-fluoro-3-hydroxynaphthalen-1-yl)-8-fluoro-4-((R)-3-hydroxy-3-methylpiperidin-1-yl)pyrido[4,3-d]pyrimidin-2-yl)oxy)methyl)hexahydro-1H-pyrrolizin-3-yl)methyl 7-(4-(1-(2,6-dioxopiperidin-3-yl)-3-methyl-2-oxo-2,3-dihydro-1H-benzo[d]imidazol-5-yl)piperidin-1-yl)-2-azaspiro[3.5]nonane-2-carboxylate] |
| < 0.1 | < 0.001 | < 0.01 | C#Cc1c(F)ccc2cc(O)cc(-c3ncc4c(N5CCC[C@@](C)(O)C5)nc(OC[C@@]56CCCN5[C@H](COC(=O)N5CC7(CCC(CN8CCC(c9ccc%10c(c9)n(C)c(=O)n%10C9CCC(=O)NC9=O)CC8)CC7)C5)CC6)nc4c3F)c12 (stereo partly drawn) [Compound 421, ((3S,7aS)-7a-(((7-(8-ethynyl-7-fluoro-3-hydroxynaphthalen-1-yl)-8-fluoro-4-((R)-3-hydroxy-3-methylpiperidin-1-yl)pyrido[4,3-d]pyrimidin-2-yl)oxy)methyl)hexahydro-1H-pyrrolizin-3-yl)methyl 7-((4-(1-(2,6-dioxopiperidin-3-yl)-3-methyl-2-oxo-2,3-dihydro-1H-benzo[d]imidazol-5-yl)piperidin-1-yl)methyl)-2-azaspiro[3.5]nonane-2-carboxylate] |
| < 0.1 | < 0.001 | < 0.01 | CCc1c(F)ccc2cc(O)cc(-c3ncc4c(N5CCCOCC5)nc(OC[C@@]56CCCN5[C@H](COC(=O)N5CCC(CN7CCC(c8ccc9c(c8)n(C)c(=O)n9C8CCC(=O)NC8=O)CC7)CC5)CC6)nc4c3F)c12 (stereo partly drawn) [Compound 422, ((3S,7aS)-7a-(((7-(8-ethyl-7-fluoro-3-hydroxynaphthalen-1-yl)-8-fluoro-4-(1,4-oxazepan-4-yl)pyrido[4,3-d]pyrimidin-2-yl)oxy)methyl)hexahydro-1H-pyrrolizin-3-yl)methyl 4-((4-(1-(2,6-dioxopiperidin-3-yl)-3-methyl-2-oxo-2,3-dihydro-1H-benzo[d]imidazol-5-yl)piperidin-1-yl)methyl)piperidine-1-carboxylate] |
| < 0.1 | < 0.001 | < 0.01 | CCc1c(F)ccc2cc(O)cc(-c3ncc4c(N5CCCOCC5)nc(OC[C@]56CCCN5[C@H](COC(=O)N5CCC(CN7CCC(c8ccc9c(c8)n(C)c(=O)n9C8CCC(=O)NC8=O)CC7)CC5)CC6)nc4c3F)c12 (stereo partly drawn) [Compound 423, ((3S,7aR)-7a-(((7-(8-ethyl-7-fluoro-3-hydroxynaphthalen-1-yl)-8-fluoro-4-(1,4-oxazepan-4-yl)pyrido[4,3-d]pyrimidin-2-yl)oxy)methyl)hexahydro-1H-pyrrolizin-3-yl)methyl 4-((4-(1-(2,6-dioxopiperidin-3-yl)-3-methyl-2-oxo-2,3-dihydro-1H-benzo[d]imidazol-5-yl)piperidin-1-yl)methyl)piperidine-1-carboxylate] |
